{"source": "patent US12281080B2", "about": "“Quinoline-based compounds and methods of inhibiting CDK8/19” (University of South Carolina, priority 2018, dated 2025)", "assay_in_all_cases": "KINOMEscan scanMAX", "key": {"[1]": {"molecular_target": "RPS6KA5(Kin.Dom.2-C-terminal) (Homo sapiens (Human), UniProt O75582)", "assay_type": "binding", "conditions": "2000 nM; read-out: Percent Control"}, "[2]": {"molecular_target": "ABL1(Q252H)-phosphorylated (Homo sapiens (Human), UniProt P00519, Q252H)", "assay_type": "binding", "conditions": "2000 nM; read-out: Percent Control"}, "KIT(V559D, V654A)": {"molecular_target": "KIT(V559D, V654A) (Homo sapiens (Human), UniProt P10721, V559D/V654A)", "assay_type": "binding", "conditions": "2000 nM; read-out: Percent Control"}, "[3]": {"molecular_target": "TYK2(JH1domain-catalytic) (Homo sapiens (Human), UniProt P29597)", "assay_type": "binding", "conditions": "2000 nM; read-out: Percent Control"}, "TSSK1B": {"molecular_target": "TSSK1B (Homo sapiens (Human), UniProt Q9BXA7)", "sequence (Q9BXA7 whole entry)": "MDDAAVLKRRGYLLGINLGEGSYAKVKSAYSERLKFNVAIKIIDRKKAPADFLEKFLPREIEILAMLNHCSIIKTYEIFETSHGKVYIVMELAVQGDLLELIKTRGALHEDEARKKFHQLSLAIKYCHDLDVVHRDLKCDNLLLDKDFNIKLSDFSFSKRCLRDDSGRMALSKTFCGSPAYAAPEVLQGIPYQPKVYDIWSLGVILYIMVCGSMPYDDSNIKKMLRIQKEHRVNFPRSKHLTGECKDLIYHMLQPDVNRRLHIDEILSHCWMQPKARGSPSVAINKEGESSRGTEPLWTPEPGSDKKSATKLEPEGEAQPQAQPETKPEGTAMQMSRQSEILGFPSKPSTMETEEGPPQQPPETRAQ", "assay_type": "binding", "conditions": "2000 nM; read-out: Percent Control"}, "STK39": {"molecular_target": "STK39 (Homo sapiens (Human), UniProt Q9UEW8)", "assay_type": "binding", "conditions": "2000 nM; read-out: Percent Control"}, "BMPR2": {"molecular_target": "BMPR2 (Homo sapiens (Human), UniProt Q13873)", "assay_type": "binding", "conditions": "2000 nM; read-out: Percent Control"}, "TAOK3": {"molecular_target": "TAOK3 (Homo sapiens (Human), UniProt Q9H2K8)", "assay_type": "binding", "conditions": "2000 nM; read-out: Percent Control"}, "MARK2": {"molecular_target": "MARK2 (Homo sapiens (Human), UniProt Q7KZI7)", "assay_type": "binding", "conditions": "2000 nM; read-out: Percent Control"}, "PIK3CA(Q546K)": {"molecular_target": "PIK3CA(Q546K) (Homo sapiens (Human), UniProt P42336, Q546K)", "assay_type": "binding", "conditions": "2000 nM; read-out: Percent Control"}, "FLT3(N841I)": {"molecular_target": "FLT3(N841I) (Homo sapiens (Human), UniProt P36888, N841I)", "assay_type": "binding", "conditions": "2000 nM; read-out: Percent Control"}, "PIK3CA": {"molecular_target": "PIK3CA (Homo sapiens (Human), UniProt P42336)", "assay_type": "binding", "conditions": "2000 nM; read-out: Percent Control"}, "PRP4 (PRPF4B)": {"molecular_target": "PRP4 (PRPF4B) (Homo sapiens (Human), UniProt Q13523)", "assay_type": "binding", "conditions": "2000 nM; read-out: Percent Control"}, "SBK1": {"molecular_target": "SBK1 (Homo sapiens (Human), UniProt Q52WX2)", "assay_type": "binding", "conditions": "2000 nM; read-out: Percent Control"}, "EPHA2": {"molecular_target": "EPHA2 (Homo sapiens (Human), UniProt P29317)", "assay_type": "binding", "conditions": "2000 nM; read-out: Percent Control"}, "CAMK2G": {"molecular_target": "CAMK2G (Homo sapiens (Human), UniProt Q13555)", "assay_type": "binding", "conditions": "2000 nM; read-out: Percent Control"}, "INSR": {"molecular_target": "INSR (Homo sapiens (Human), UniProt P06213)", "sequence (P06213 28-1382)": "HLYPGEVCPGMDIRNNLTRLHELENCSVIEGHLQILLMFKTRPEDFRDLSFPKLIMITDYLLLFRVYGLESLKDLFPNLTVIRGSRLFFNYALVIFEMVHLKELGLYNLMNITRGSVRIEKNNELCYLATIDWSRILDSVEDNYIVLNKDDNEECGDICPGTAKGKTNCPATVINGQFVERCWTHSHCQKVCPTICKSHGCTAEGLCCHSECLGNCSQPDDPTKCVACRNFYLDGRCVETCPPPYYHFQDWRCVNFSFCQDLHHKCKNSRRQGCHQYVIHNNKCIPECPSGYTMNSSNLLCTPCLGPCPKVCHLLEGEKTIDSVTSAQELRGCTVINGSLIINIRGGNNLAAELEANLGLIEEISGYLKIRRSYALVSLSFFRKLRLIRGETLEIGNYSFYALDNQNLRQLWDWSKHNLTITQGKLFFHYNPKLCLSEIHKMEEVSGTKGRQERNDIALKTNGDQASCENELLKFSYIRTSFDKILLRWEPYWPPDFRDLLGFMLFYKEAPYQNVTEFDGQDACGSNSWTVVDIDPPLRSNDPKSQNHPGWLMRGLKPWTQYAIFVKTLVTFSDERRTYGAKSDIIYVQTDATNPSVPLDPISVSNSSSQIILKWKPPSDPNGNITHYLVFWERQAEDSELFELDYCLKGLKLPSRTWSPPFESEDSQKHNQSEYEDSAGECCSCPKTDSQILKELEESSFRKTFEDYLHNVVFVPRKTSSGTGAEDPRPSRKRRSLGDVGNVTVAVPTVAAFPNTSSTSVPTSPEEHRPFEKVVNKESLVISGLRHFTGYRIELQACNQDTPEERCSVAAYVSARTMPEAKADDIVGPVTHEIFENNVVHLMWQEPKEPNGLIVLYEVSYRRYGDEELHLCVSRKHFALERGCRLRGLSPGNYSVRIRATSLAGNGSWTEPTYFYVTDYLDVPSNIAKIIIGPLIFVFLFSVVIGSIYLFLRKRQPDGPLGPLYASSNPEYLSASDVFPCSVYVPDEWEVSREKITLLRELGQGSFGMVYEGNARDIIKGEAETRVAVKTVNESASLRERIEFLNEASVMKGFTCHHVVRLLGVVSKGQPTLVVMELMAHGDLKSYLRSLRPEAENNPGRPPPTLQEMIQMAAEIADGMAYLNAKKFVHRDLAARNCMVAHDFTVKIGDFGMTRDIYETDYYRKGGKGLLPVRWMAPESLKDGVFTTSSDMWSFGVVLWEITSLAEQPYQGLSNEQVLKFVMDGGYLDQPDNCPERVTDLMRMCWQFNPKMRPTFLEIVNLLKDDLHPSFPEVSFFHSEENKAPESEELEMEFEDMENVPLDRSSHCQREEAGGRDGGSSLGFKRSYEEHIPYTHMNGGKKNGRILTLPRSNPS", "assay_type": "binding", "conditions": "2000 nM; read-out: Percent Control"}, "MKK7 (MAP2K7)": {"molecular_target": "MKK7 (MAP2K7) (Homo sapiens (Human), UniProt O14733)", "assay_type": "binding", "conditions": "2000 nM; read-out: Percent Control"}, "PFTK1 (CDK14)": {"molecular_target": "PFTK1 (CDK14) (Homo sapiens (Human), UniProt O94921)", "assay_type": "binding", "conditions": "2000 nM; read-out: Percent Control"}, "GSK3B": {"molecular_target": "GSK3B (Homo sapiens (Human), UniProt P49841)", "assay_type": "binding", "conditions": "2000 nM; read-out: Percent Control"}, "FLT3(ITD, D835V)": {"test_system": "FLT3(ITD, D835V)", "assay_type": "binding, human", "conditions": "2000 nM"}, "EPHB2": {"molecular_target": "EPHB2 (Homo sapiens (Human), UniProt P29323)", "assay_type": "binding", "conditions": "2000 nM; read-out: Percent Control"}, "ABL2": {"molecular_target": "ABL2 (Homo sapiens (Human), UniProt P42684)", "assay_type": "binding", "conditions": "2000 nM; read-out: Percent Control"}, "ERK1 (MAPK3)": {"molecular_target": "ERK1 (MAPK3) (Homo sapiens (Human), UniProt P27361)", "assay_type": "binding", "conditions": "2000 nM; read-out: Percent Control"}, "YANK1 (STK32A)": {"molecular_target": "YANK1 (STK32A) (Homo sapiens (Human), UniProt Q8WU08)", "assay_type": "binding", "conditions": "2000 nM; read-out: Percent Control"}, "ASK1 (MAP3K5)": {"molecular_target": "ASK1 (MAP3K5) (Homo sapiens (Human), UniProt Q99683)", "assay_type": "binding", "conditions": "2000 nM; read-out: Percent Control"}, "[4]": {"molecular_target": "RSK4(Kin.Dom.1-N-terminal) (RPS6KA6) (Homo sapiens (Human), UniProt Q9UK32)", "assay_type": "binding", "conditions": "2000 nM; read-out: Percent Control"}, "EGFR(L861Q)": {"molecular_target": "EGFR(L861Q) (Homo sapiens (Human), UniProt P00533, L861Q)", "assay_type": "binding", "conditions": "2000 nM; read-out: Percent Control"}, "[5]": {"molecular_target": "JAK1(JH2domain-pseudokinase) (Homo sapiens (Human), UniProt P23458)", "assay_type": "binding", "conditions": "2000 nM; read-out: Percent Control"}, "TLK2": {"molecular_target": "TLK2 (Homo sapiens (Human), UniProt Q86UE8)", "sequence (Q86UE8 whole entry)": "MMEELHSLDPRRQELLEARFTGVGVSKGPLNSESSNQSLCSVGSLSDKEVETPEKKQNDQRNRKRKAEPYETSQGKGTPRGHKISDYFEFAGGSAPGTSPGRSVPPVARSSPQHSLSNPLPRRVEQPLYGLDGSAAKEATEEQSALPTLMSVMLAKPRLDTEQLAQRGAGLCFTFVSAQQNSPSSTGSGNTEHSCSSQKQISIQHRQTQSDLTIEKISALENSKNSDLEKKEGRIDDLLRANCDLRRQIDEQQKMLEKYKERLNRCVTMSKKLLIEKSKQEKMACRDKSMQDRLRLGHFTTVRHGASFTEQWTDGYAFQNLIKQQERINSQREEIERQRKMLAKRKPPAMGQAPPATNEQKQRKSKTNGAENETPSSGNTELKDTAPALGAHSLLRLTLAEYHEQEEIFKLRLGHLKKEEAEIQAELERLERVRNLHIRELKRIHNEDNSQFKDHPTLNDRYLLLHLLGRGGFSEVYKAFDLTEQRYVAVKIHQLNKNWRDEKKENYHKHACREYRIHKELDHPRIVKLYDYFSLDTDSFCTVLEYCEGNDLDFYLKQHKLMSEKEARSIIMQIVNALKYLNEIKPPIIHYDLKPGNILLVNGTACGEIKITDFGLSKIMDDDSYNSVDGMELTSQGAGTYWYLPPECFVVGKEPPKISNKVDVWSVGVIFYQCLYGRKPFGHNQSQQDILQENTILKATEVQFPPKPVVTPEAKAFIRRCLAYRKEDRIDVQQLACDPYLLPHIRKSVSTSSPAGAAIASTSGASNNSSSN", "assay_type": "binding", "conditions": "2000 nM; read-out: Percent Control"}, "GRK3 (ADRBK2)": {"molecular_target": "GRK3 (ADRBK2) (Homo sapiens (Human), UniProt P35626)", "assay_type": "binding", "conditions": "2000 nM; read-out: Percent Control"}, "CDC2L1 (CDK11B)": {"molecular_target": "CDC2L1 (CDK11B) (Homo sapiens (Human), UniProt P21127)", "assay_type": "binding", "conditions": "2000 nM; read-out: Percent Control"}, "FGFR1": {"molecular_target": "FGFR1 (Homo sapiens (Human), UniProt P11362)", "assay_type": "binding", "conditions": "2000 nM; read-out: Percent Control"}, "EPHA6": {"molecular_target": "EPHA6 (Homo sapiens (Human), UniProt Q9UF33)", "sequence (Q9UF33 23-1036)": "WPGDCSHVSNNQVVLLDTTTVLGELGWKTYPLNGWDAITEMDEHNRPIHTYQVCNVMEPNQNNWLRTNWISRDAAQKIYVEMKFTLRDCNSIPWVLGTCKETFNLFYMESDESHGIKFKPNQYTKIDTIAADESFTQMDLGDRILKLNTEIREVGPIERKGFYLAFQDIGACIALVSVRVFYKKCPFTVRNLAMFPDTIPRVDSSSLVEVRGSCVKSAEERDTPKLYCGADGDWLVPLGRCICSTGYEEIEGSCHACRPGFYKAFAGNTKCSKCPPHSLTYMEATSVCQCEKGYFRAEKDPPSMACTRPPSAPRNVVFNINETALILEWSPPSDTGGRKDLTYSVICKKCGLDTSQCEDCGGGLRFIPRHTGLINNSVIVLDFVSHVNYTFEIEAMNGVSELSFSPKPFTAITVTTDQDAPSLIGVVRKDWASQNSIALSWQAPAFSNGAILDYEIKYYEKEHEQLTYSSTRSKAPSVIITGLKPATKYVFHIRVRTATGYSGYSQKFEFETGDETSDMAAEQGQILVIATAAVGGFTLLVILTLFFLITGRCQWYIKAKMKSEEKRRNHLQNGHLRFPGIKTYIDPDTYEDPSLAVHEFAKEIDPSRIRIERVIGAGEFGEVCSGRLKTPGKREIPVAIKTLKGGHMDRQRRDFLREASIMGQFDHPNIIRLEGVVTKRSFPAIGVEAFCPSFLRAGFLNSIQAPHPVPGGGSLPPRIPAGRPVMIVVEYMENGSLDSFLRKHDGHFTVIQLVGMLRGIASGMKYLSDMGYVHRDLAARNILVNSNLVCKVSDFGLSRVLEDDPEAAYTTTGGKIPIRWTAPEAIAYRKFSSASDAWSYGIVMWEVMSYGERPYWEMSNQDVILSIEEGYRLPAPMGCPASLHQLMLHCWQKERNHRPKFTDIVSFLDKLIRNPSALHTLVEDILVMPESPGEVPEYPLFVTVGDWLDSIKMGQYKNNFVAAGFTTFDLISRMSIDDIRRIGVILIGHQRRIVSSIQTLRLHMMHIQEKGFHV", "assay_type": "binding", "conditions": "2000 nM; read-out: Percent Control"}, "EGFR": {"molecular_target": "EGFR (Homo sapiens (Human), UniProt P00533)", "assay_type": "binding", "conditions": "2000 nM; read-out: Percent Control"}, "KIT": {"molecular_target": "KIT (Homo sapiens (Human), UniProt P10721)", "sequence (P10721 26-976)": "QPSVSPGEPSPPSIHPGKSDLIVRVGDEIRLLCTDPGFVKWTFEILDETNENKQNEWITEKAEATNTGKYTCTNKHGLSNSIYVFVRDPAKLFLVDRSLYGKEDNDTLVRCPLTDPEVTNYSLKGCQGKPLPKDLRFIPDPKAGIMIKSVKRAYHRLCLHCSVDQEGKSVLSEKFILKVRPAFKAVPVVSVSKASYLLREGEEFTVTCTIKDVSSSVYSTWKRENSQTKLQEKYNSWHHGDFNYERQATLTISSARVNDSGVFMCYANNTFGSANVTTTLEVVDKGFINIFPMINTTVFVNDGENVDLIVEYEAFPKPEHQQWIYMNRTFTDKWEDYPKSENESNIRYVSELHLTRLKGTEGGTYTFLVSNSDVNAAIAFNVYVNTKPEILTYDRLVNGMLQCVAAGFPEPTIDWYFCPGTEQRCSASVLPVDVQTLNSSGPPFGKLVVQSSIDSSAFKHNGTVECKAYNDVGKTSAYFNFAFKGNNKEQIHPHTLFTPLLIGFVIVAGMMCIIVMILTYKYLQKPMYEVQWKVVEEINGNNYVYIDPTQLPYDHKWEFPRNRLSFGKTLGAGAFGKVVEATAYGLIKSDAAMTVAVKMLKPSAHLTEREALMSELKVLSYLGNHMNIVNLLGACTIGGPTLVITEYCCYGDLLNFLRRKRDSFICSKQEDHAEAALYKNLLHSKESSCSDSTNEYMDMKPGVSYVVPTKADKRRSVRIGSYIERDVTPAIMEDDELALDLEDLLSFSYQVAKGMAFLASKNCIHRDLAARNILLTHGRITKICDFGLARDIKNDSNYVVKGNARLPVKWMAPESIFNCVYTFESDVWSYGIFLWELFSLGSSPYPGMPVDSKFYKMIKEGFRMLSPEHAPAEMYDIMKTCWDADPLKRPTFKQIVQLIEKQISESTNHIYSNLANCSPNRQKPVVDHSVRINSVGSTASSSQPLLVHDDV", "assay_type": "binding", "conditions": "2000 nM; read-out: Percent Control"}, "ULK2": {"molecular_target": "ULK2 (Homo sapiens (Human), UniProt Q8IYT8)", "assay_type": "binding", "conditions": "2000 nM; read-out: Percent Control"}, "MAP3K4": {"molecular_target": "MAP3K4 (Homo sapiens (Human), UniProt Q9Y6R4)", "assay_type": "binding", "conditions": "2000 nM; read-out: Percent Control"}, "DYRK1B": {"molecular_target": "DYRK1B (Homo sapiens (Human), UniProt Q9Y463)", "sequence (Q9Y463 whole entry)": "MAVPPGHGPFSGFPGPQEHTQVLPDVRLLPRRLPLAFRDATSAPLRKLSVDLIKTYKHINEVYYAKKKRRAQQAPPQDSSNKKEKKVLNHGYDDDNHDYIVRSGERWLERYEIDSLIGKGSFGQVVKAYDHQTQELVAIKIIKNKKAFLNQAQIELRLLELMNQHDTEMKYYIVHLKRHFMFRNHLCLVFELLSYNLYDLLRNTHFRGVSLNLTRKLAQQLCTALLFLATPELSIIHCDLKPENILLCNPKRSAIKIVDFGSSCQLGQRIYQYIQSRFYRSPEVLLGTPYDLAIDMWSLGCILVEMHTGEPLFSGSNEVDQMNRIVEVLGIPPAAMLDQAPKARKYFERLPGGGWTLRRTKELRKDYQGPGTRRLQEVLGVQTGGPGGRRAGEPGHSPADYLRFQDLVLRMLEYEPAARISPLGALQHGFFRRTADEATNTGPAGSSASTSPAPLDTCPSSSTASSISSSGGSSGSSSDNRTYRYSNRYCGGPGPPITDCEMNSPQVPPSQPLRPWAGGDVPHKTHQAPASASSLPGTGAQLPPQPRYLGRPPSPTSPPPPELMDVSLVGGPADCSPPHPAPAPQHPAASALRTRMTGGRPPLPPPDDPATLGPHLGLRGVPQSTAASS", "assay_type": "binding", "conditions": "2000 nM; read-out: Percent Control"}}, "data": [{"smiles": "CN1CCN(C(=O)c2ccc3cc(CCNc4ccnc5ccc(C#N)cc45)ccc3c2)CC1", "note": "[compound 6148, 4-((2-(6-(4-methylpiperazine-1-carbonyl)naphthalen-2-yl)ethyl)amino)quinoline-6-carbonitrile]", "values": [{"measurement": "remaining binding at 2 µM", "setting": "[1]", "value": 100, "unit": "%"}, {"measurement": "remaining binding at 2 µM", "setting": "[2]", "value": 89, "unit": "%"}, {"measurement": "remaining binding at 2 µM", "setting": "KIT(V559D, V654A)", "value": 89, "unit": "%"}, {"measurement": "remaining binding at 2 µM", "setting": "[3]", "value": 62, "unit": "%"}, {"measurement": "remaining binding at 2 µM", "setting": "TSSK1B", "value": 100, "unit": "%"}, {"measurement": "remaining binding at 2 µM", "setting": "STK39", "value": 44, "unit": "%"}, {"measurement": "remaining binding at 2 µM", "setting": "BMPR2", "value": 66, "unit": "%"}, {"measurement": "remaining binding at 2 µM", "setting": "TAOK3", "value": 79, "unit": "%"}, {"measurement": "remaining binding at 2 µM", "setting": "MARK2", "value": 100, "unit": "%"}, {"measurement": "remaining binding at 2 µM", "setting": "PIK3CA(Q546K)", "value": 70, "unit": "%"}, {"measurement": "remaining binding at 2 µM", "setting": "FLT3(N841I)", "value": 100, "unit": "%"}, {"measurement": "remaining binding at 2 µM", "setting": "PIK3CA", "value": 90, "unit": "%"}, {"measurement": "remaining binding at 2 µM", "setting": "PRP4 (PRPF4B)", "value": 71, "unit": "%"}, {"measurement": "remaining binding at 2 µM", "setting": "SBK1", "value": 57, "unit": "%"}, {"measurement": "remaining binding at 2 µM", "setting": "EPHA2", "value": 100, "unit": "%"}, {"measurement": "remaining binding at 2 µM", "setting": "CAMK2G", "value": 100, "unit": "%"}, {"measurement": "remaining binding at 2 µM", "setting": "INSR", "value": 93, "unit": "%"}, {"measurement": "remaining binding at 2 µM", "setting": "MKK7 (MAP2K7)", "value": 75, "unit": "%"}, {"measurement": "remaining binding at 2 µM", "setting": "PFTK1 (CDK14)", "value": 98, "unit": "%"}, {"measurement": "remaining binding at 2 µM", "setting": "GSK3B", "value": 67, "unit": "%"}, {"measurement": "Percent Control", "setting": "FLT3(ITD, D835V)", "value": 55, "unit": "%"}, {"measurement": "remaining binding at 2 µM", "setting": "EPHB2", "value": 86, "unit": "%"}, {"measurement": "remaining binding at 2 µM", "setting": "ABL2", "value": 93, "unit": "%"}, {"measurement": "remaining binding at 2 µM", "setting": "ERK1 (MAPK3)", "value": 95, "unit": "%"}, {"measurement": "remaining binding at 2 µM", "setting": "YANK1 (STK32A)", "value": 76, "unit": "%"}, {"measurement": "remaining binding at 2 µM", "setting": "ASK1 (MAP3K5)", "value": 91, "unit": "%"}, {"measurement": "remaining binding at 2 µM", "setting": "[4]", "value": 60, "unit": "%"}, {"measurement": "remaining binding at 2 µM", "setting": "EGFR(L861Q)", "value": 64, "unit": "%"}, {"measurement": "remaining binding at 2 µM", "setting": "[5]", "value": 58, "unit": "%"}, {"measurement": "remaining binding at 2 µM", "setting": "TLK2", "value": 88, "unit": "%"}, {"measurement": "remaining binding at 2 µM", "setting": "GRK3 (ADRBK2)", "value": 73, "unit": "%"}, {"measurement": "remaining binding at 2 µM", "setting": "CDC2L1 (CDK11B)", "value": 96, "unit": "%"}, {"measurement": "remaining binding at 2 µM", "setting": "FGFR1", "value": 85, "unit": "%"}, {"measurement": "remaining binding at 2 µM", "setting": "EPHA6", "value": 79, "unit": "%"}, {"measurement": "remaining binding at 2 µM", "setting": "EGFR", "value": 91, "unit": "%"}, {"measurement": "remaining binding at 2 µM", "setting": "KIT", "value": 95, "unit": "%"}, {"measurement": "remaining binding at 2 µM", "setting": "ULK2", "value": 71, "unit": "%"}, {"measurement": "remaining binding at 2 µM", "setting": "MAP3K4", "value": 81, "unit": "%"}, {"measurement": "remaining binding at 2 µM", "setting": "DYRK1B", "value": 83, "unit": "%"}]}]}
